Measurements reported in patent US12617795B2, “Substituted 6,7-dihydro-5H-pyrrolo[3,4-d]pyrimidines, 5,7-dihydrofuro[3,4-d]pyrimidines, and pyrido[2,3-d]pyrimidines as KCC2 modulators” (Astrazeneca AB, priority 2020, dated 2026).

Each compound was assayed against T1, KCC2 (Homo sapiens, UniProt Q9H2X9) (assay: KCC2 thallium transport FLIPR-based assay (Tl+ influx in HEK293 cells expressing KCC2)). Settings: 90 min compound incubation at RT, thallium flux at 120 s used to determine EC50.
T1 construct: expressed in transfected cells; host or cells: HEK293 cells electroporated (Maxcyte STX) with the pcDNA3.1 KCC2 plasmid
T1 sequence (Q9H2X9 1-1139): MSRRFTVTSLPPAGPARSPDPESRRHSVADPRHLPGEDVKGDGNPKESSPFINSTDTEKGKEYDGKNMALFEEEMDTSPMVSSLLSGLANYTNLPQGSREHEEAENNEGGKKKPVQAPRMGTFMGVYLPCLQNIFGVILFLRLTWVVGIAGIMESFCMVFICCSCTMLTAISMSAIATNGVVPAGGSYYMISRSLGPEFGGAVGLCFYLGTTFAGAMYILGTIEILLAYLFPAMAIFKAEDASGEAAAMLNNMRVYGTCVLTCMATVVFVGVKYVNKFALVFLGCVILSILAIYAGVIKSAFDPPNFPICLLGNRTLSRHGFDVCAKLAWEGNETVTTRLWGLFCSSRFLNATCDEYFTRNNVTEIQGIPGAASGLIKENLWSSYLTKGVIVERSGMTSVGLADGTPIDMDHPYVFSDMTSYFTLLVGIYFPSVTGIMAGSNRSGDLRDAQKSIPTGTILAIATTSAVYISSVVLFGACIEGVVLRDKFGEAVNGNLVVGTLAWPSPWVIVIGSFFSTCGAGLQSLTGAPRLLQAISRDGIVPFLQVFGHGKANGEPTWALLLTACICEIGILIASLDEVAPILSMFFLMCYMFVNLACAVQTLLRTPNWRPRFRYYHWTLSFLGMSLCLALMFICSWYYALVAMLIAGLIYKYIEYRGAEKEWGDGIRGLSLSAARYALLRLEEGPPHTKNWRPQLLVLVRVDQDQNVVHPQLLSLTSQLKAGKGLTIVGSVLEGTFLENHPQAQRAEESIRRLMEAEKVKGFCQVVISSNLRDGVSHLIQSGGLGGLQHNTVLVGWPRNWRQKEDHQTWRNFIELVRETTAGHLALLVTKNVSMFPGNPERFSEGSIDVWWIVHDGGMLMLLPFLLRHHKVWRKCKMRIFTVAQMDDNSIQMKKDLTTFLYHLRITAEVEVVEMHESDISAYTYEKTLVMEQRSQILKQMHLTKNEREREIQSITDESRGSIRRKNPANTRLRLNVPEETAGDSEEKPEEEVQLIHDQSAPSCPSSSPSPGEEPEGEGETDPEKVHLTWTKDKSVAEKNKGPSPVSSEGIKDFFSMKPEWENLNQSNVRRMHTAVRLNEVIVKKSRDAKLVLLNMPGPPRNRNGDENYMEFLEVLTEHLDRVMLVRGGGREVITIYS
Format: cell-based
Outline: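 Transient electroporation of codon-optimised human KCC2 into HEK293 cells, plated and cultured 48 h before dye loading (1 h, RT). Compounds run as a 12-point 1:2 series from 100 μM top, 90 min RT in buffer containing bumetanide; Tl+ flux read by FLIPR after stimulus addition, 1 s intervals over 120 s, with the 120 s signal used for EC50.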

| EC50 | SMILES |
| --- | --- |
| 3.51 µM | CC(C)N1Cc2c(Nc3ccc(-c4ccc(Cl)cc4)cc3)nc(N3CCOCC3)nc2C1=O [Example 89, 4-[(4′-chloro[1,1′-biphenyl]-4-yl)amino]-2-(morpholin-4-yl)-6-(propan-2-yl)-5,6-dihydro-7H-pyrrolo[3,4-d]pyrimidin-7-one] |
| 1.71 µM | C[C@@H]1CN(c2nc3c(c(Nc4ccc(C5CCCCC5)cc4)n2)COC3)CCO1 [Example 90, (R)—N-(4-cyclohexylphenyl)-2-(2-methylmorpholino)-5,7-dihydrofuro[3,4-d]pyrimidin-4-amine] |
| 9.92 µM | C1=C(c2nc3c(c(Nc4ccc(C5CCC5)cc4)n2)COC3)CCOC1 [Example 91, N-(4-cyclobutylphenyl)-2-(3,6-dihydro-2H-pyran-4-yl)-5,7-dihydrofuro[3,4-d]pyrimidin-4-amine] |
| 2.37 µM | c1cc(C2CCCCC2)ccc1Nc1nc(N2CCOC(C3CC3)C2)nc2c1COC2 (centres unmarked) [Example 92, N-(4-cyclohexylphenyl)-2-(2-cyclopropyl-morpholin-4-yl)-5,7-dihydrofuro[3,4-d]pyrimidin-4-amine] |
| 1.41 µM | CCCCCCCOc1ccc(-c2ccc(Nc3nc(N4CCOC(C5CC5)C4)nc4c3COC4)cc2)cc1 (centres unmarked) [Example 93] |
| 1.3 µM | C[C@@H]1CN(c2nc3c(c(Nc4ccc(-c5ccc(OCCCCCC(F)(F)F)cc5)cc4)n2)COC3)CCO1 [Example 94, 2-[(2R)-2-methylmorpholin-4-yl]-N-{4′-[(6,6,6-trifluorohexyl)oxy][1,1′-biphenyl]-4-yl}-5,7-dihydrofuro[3,4-d]pyrimidin-4-amine] |
| 3.22 µM | Cc1cc(-c2nc3c(c(Nc4ccc(C5CCCCC5)cc4)n2)COC3)ccn1 [Example 95, N-(4-cyclohexylphenyl)-2-(2-methylpyridin-4-yl)-5,7-dihydrofuro[3,4-d]pyrimidin-4-amine] |
| 2.92 µM | C[C@@H]1CN(c2nc(Nc3ccc(C4CCCCC4)cc3)c3cccnc3n2)CCO1 [Example 96, N-(4-cyclohexylphenyl)-2-[(2R)-2-methylmorpholin-4-yl]pyrido[2,3-d]pyrimidin-4-amine] |
| 1.35 µM | C[C@@H]1CN(c2nc(Nc3ccc(C4CCCCC4)cc3)c3cc(Br)cnc3n2)CCO1 [Example 97, 6-bromo-N-(4-cyclohexylphenyl)-2-[(2R)-2-methylmorpholin-4-yl]pyrido[2,3-d]pyrimidin-4-amine] |
| 5.53 µM | C1=C(c2nc(Nc3ccc(C4CCCCC4)cc3)c3cccnc3n2)CCOC1 [Example 98, N-(4-cyclohexylphenyl)-2-(3,6-dihydro-2H-pyran-4-yl)pyrido[2,3-d]pyrimidin-4-amine] |
| 3.79 µM | C[C@@H]1CN(c2nc(Nc3ccc(C4CCCCC4)cc3)c3ccc[n+]([O-])c3n2)CCO1 [Example 99, (R)-4-((4-cyclohexylphenyl)amino)-2-(2-methylmorpholino)pyrido [2,3-d]pyrimidine 8-oxide] |
| 6.3 µM | CCc1cnc2nc(N3CCO[C@H](C)C3)nc(Nc3ccc(C4CCCCC4)cc3)c2c1 [Example 100, (R)—N-(4-cyclohexylphenyl)-6-ethyl-2-(2-methylmorpholino) pyrido[2,3-d]pyrimidin-4-amine] |
| 1.01 µM | C[C@@H]1CN(c2nc(Nc3ccc(C4CCCCC4)cc3)c3cc(C#N)cnc3n2)CCO1 [Example 101, (R)-4-((4-cyclohexylphenyl)amino)-2-(2-methylmorpholino)pyrido[2,3-d]pyrimidine-6-carbonitrile] |
| 0.7 µM | COC(=O)c1cnc2nc(N3CCO[C@H](C)C3)nc(Nc3ccc(C4CCCCC4)cc3)c2c1 [Example 102, methyl (R)-4-((4-cyclohexylphenyl)amino)-2-(2-methylmorpholino) pyrido[2,3-d]pyrimidine-6-carboxylate] |
| 3.99 µM | C[C@@H]1CN(c2nc(Nc3ccc(C4CCCCC4)cc3)c3cc(C(=O)O)cnc3n2)CCO1 [Example 103, (R)-4-((4-cyclohexylphenyl)amino)-2-(2-methylmorpholino)pyrido[2,3-d]pyrimidine-6-carboxylic acid] |
| 1.63 µM | C[C@@H]1CN(c2nc(Nc3ccc(C4CCCCC4)cc3)c3cc(C(N)=O)cnc3n2)CCO1 [Example 104, (R)-4-((4-cyclohexylphenyl)amino)-2-(2-methylmorpholino)pyrido[2,3-d]pyrimidine-6-carboxamide] |
| 1.17 µM | NC(=O)c1cnc2nc(N3CCOC(C4CC4)C3)nc(Nc3ccc(C4CCCCC4)cc3)c2c1 (centres unmarked) [Example 105, 4-((4-cyclohexylphenyl)amino)-2-(2-cyclopropylmorpholino) pyrido[2,3-d]pyrimidine-6-carboxamide] |
| 1.85 µM | COc1cnc2nc(N3CCO[C@H](C)C3)nc(Nc3ccc(C4CCCCC4)cc3)c2c1 [Example 106, (R)—N-(4-cyclohexylphenyl)-6-methoxy-2-(2-methylmorpholino) pyrido[2,3-d]pyrimidin-4-amine] |
| 6.3 µM | CC(=O)Nc1cnc2nc(N3CCO[C@H](C)C3)nc(Nc3ccc(C4CCCCC4)cc3)c2c1 [Example 107, (R)—N-(4-((4-cyclohexylphenyl)amino)-2-(2-methylmorpholino)pyrido[2,3-d]pyrimidin-6-yl)acetamide] |
| 1.97 µM | C[C@@H]1CN(c2nc(Nc3ccc(C4CCCCC4)cc3)c3cc(N)cnc3n2)CCO1 [Example 108, (R)—N4-(4-cyclohexylphenyl)-2-(2-methylmorpholino)pyrido[2,3-d]pyrimidine-4,6-diamine] |
| 6.34 µM | CC(C)N1Cc2nc(N3CCOCC3)nc(Nc3ccc(C4CCCCC4)cc3)c2C1 [Example 109, N-(4-cyclohexylphenyl)-6-isopropyl-2-morpholino-6,7-dihydro-5H-pyrrolo[3,4-d]pyrimidin-4-amine] |
| 7.31 µM | CC(C)N1Cc2nc(N3CCO[C@H](C)C3)nc(Nc3ccc(C4CCCCC4)cc3)c2C1 [Example 110, (R)—N-(4-cyclohexylphenyl)-6-isopropyl-2-(2-methylmorpholino)-6,7-dihydro-5H-pyrrolo[3,4-d]pyrimidin-4-amine] |
| 5.35 µM | CN(C)C(=O)CN1Cc2nc(C3=CCOCC3)nc(Nc3ccc(C4CCCCC4)cc3)c2C1 [Example 111, 2-{4-[(4-cyclohexylphenyl)amino]-2-(3,6-dihydro-2H-pyran-4-yl)-5,7-dihydro-6H-pyrrolo[3,4-d]pyrimidin-6-yl}-N,N-dimethylacetamide] |
| 3.57 µM | CN1CCC(N2Cc3nc(N4CCOC(C5CC5)C4)nc(Nc4ccc(C5CCCCC5)cc4)c3C2)CC1 (centres unmarked) [Example 112, N-(4-cyclohexylphenyl)-2-(2-cyclopropylmorpholino)-6-(1-methylpiperidin-4-yl)-6,7-dihydro-5H-pyrrolo[3,4-d]pyrimidin-4-amine] |
| 4.74 µM | CC(C)N1Cc2c(Nc3ccc(-c4cccs4)cc3)nc(N3CCOCC3)nc2C1=O [Example 113, 2-(morpholin-4-yl)-6-(propan-2-yl)-4-{[4-(thiophen-2-yl)phenyl]amino}-5,6-dihydro-7H-pyrrolo[3,4-d]pyrimidin-7-one] |
| 7.3 µM | CC(C)N1Cc2c(Nc3ccc(-c4ccsc4)cc3)nc(N3CCOCC3)nc2C1=O [Example 114, 2-(morpholin-4-yl)-6-(propan-2-yl)-4-{[4-(thiophen-3-yl)phenyl]amino}-5,6-dihydro-7H-pyrrolo[3,4-d]pyrimidin-7-one] |
